Measurements from ChEMBL document CHEMBL1201862, “PubChem BioAssay data set” (2004).
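How tested: cells in 96-well plates exposed to compound for 48 hours at five concentrations. At the GI50, growth is halved.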 The source made the active and inactive calls. No stated cut-off is given here; in the data, active = GI50 up to about 1.1 µM and inactive = higher.

Assays:
Experiment in all cases: inhibition of tumour cell growth, NCI panel, 48 h
UACC-257 = tested on: UACC-257
KM-20L2 = tested on: KM-20L2
A549 = tested on: A549
SF-268 = tested on: SF-268
LXFL 529 = tested on: LXFL 529
K562 = tested on: K562
LOX IMVI = tested on: LOX IMVI
IGROV-1 = tested on: IGROV-1
DLD-1 = tested on: DLD-1
SF-539 = tested on: SF-539
MOLT-4 = tested on: MOLT-4
HCT-15 = tested on: HCT-15
OVCAR-5 = tested on: OVCAR-5
DMS-273 = tested on: DMS-273
SK-MEL-5 = tested on: SK-MEL-5
HT-29 = tested on: HT-29
SK-OV-3 = tested on: SK-OV-3
NCI-H460 = tested on: NCI-H460
CAKI-1 = tested on: CAKI-1
NCI-H226 = tested on: NCI-H226
SN12C = tested on: SN12C
OVCAR-8 = tested on: OVCAR-8
U-251 = tested on: U-251
SR = tested on: SR
HCC 2998 = tested on: HCC 2998
RXF 393 = tested on: RXF 393
SK-MEL-2 = tested on: SK-MEL-2
SW-620 = tested on: SW-620
HOP-18 = tested on: HOP-18
KM12 = tested on: KM12
SF-295 = tested on: SF-295
Malme-3M = tested on: Malme-3M
ACHN = tested on: ACHN
XF498 = tested on: XF498
HCT-116 = tested on: HCT-116
SNB-19 = tested on: SNB-19
HL-60 = tested on: HL-60
HOP-62 = tested on: HOP-62
CCRF-CEM = tested on: CCRF-CEM
786-0 = tested on: 786-0
HOP-92 = tested on: HOP-92
DMS-114 = tested on: DMS-114
COLO 205 = tested on: COLO 205
NCI-H23 = tested on: NCI-H23
OVCAR-3 = tested on: OVCAR-3
NCI-H522 = tested on: NCI-H522
SK-MEL-28 = tested on: SK-MEL-28
UACC-62 = tested on: UACC-62
TK-10 = tested on: TK-10
RPMI-8226 = tested on: RPMI-8226
M19-MEL = tested on: M19-MEL
EKVX = tested on: EKVX
OVCAR-4 = tested on: OVCAR-4
SNB-78 = tested on: SNB-78
UO-31 = tested on: UO-31
M14 = tested on: M14
A498 = tested on: A498

With `O=CC1=CCC2c3[nH]c4ccccc4c3CCN2C1` (stereo unspecified) the GI50 (UACC-257) was 98.9 µM (inactive), the GI50 (KM-20L2) was 135 µM (inactive) and the GI50 (A549) was > 396 µM (inactive). The GI50 (SF-268) was 167 µM (inactive), the GI50 (LXFL 529) was 55.7 µM (inactive) and the GI50 (K562) was 130 µM (inactive). The GI50 (LOX IMVI) was 58.7 µM (inactive), the GI50 (IGROV-1) was 125 µM (inactive) and the GI50 (DLD-1) was 85.5 µM (inactive). The GI50 (SF-539) was 175 µM (inactive), the GI50 (MOLT-4) was 90.2 µM (inactive) and the GI50 (HCT-15) was 68.1 µM. For the same molecule, the GI50 (OVCAR-5) was > 396 µM (inactive), the GI50 (DMS-273) was 82.4 µM (inactive) and the GI50 (SK-MEL-5) was 114 µM (inactive). The GI50 (HT-29) was 101 µM (inactive), the GI50 (SK-OV-3) was 132 µM (inactive) and the GI50 (NCI-H460) was 139 µM (inactive). The GI50 (CAKI-1) was > 396 µM (inactive), the GI50 (NCI-H226) was 117 µM (inactive) and the GI50 (SN12C) was 102 µM (inactive). The GI50 (OVCAR-8) was 139 µM (inactive), the GI50 (U-251) was 80 µM (inactive) and the GI50 (SR) was 105 µM (inactive). For the same molecule, the GI50 (HCC 2998) was 103 µM (inactive), the GI50 (RXF 393) was 182 µM (inactive) and the GI50 (SK-MEL-2) was 90.8 µM (inactive). The GI50 (SW-620) was 122 µM (inactive), the GI50 (HOP-18) was > 396 µM (inactive) and the GI50 (KM12) was 73.1 µM (inactive). For the same molecule, the GI50 (SF-295) was 106 µM (inactive), the GI50 (Malme-3M) was 296 µM (inactive) and the GI50 (ACHN) was 219 µM (inactive). For the same molecule, the GI50 (XF498) was 72.3 µM (inactive), the GI50 (HCT-116) was 61.7 µM (inactive) and the GI50 (SNB-19) was 258 µM (inactive). For the same molecule, the GI50 (HL-60) was 77.6 µM (inactive), the GI50 (HOP-62) was > 39.6 µM (inactive) and the GI50 (CCRF-CEM) was 107 µM (inactive). For the same molecule, the GI50 (786-0) was 141 µM (inactive), the GI50 (HOP-92) was 111 µM (inactive) and the GI50 (DMS-114) was 74.3 µM (inactive). For the same molecule, the GI50 (COLO 205) was 232 µM (inactive), the GI50 (NCI-H23) was 83 µM (inactive) and the GI50 (OVCAR-3) was 92.5 µM (inactive). The GI50 (NCI-H522) was 325 µM (inactive), the GI50 (SK-MEL-28) was 90.6 µM (inactive) and the GI50 (UACC-62) was 93.8 µM (inactive). The GI50 (TK-10) was 259 µM (inactive), the GI50 (RPMI-8226) was 112 µM (inactive) and the GI50 (M19-MEL) was 71.8 µM (inactive). The GI50 (EKVX) was > 396 µM (inactive).

For `[N-]=[N+]=NC(c1cn(C2CC(O)C(CO)O2)c(=O)[nH]c1=O)C(I)I` (stereo unspecified), the GI50 (UACC-257) was > 100 µM (inactive), the GI50 (KM-20L2) was > 100 µM (inactive) and the GI50 (A549) was > 100 µM (inactive). For the same molecule, the GI50 (SF-268) was 56.1 µM (inactive), the GI50 (LXFL 529) was > 100 µM (inactive) and the GI50 (K562) was > 100 µM (inactive). For the same molecule, the GI50 (LOX IMVI) was > 100 µM (inactive), the GI50 (IGROV-1) was 87.7 µM (inactive) and the GI50 (DLD-1) was > 100 µM (inactive). For the same molecule, the GI50 (OVCAR-4) was 75.7 µM (inactive), the GI50 (SF-539) was > 100 µM (inactive) and the GI50 (MOLT-4) was > 100 µM (inactive). The GI50 (OVCAR-5) was > 100 µM (inactive), the GI50 (DMS-273) was > 100 µM (inactive) and the GI50 (SK-MEL-5) was > 100 µM (inactive). The GI50 (HT-29) was > 100 µM (inactive), the GI50 (SK-OV-3) was > 100 µM (inactive) and the GI50 (SNB-78) was > 100 µM (inactive). The GI50 (NCI-H460) was > 100 µM (inactive), the GI50 (CAKI-1) was > 100 µM (inactive) and the GI50 (NCI-H226) was 9.55 µM (inactive). For the same molecule, the GI50 (SN12C) was > 100 µM (inactive), the GI50 (OVCAR-8) was > 100 µM (inactive) and the GI50 (U-251) was > 100 µM (inactive). The GI50 (SR) was > 100 µM (inactive), the GI50 (HCC 2998) was > 100 µM (inactive) and the GI50 (RXF 393) was > 100 µM (inactive). The GI50 (SK-MEL-2) was > 100 µM (inactive), the GI50 (SW-620) was > 100 µM (inactive) and the GI50 (HOP-18) was 2.23 µM (inactive). The GI50 (KM12) was > 100 µM (inactive), the GI50 (SF-295) was > 100 µM (inactive) and the GI50 (Malme-3M) was > 100 µM (inactive). For the same molecule, the GI50 (UO-31) was > 100 µM (inactive), the GI50 (ACHN) was > 100 µM (inactive) and the GI50 (HCT-116) was > 100 µM (inactive). The GI50 (SNB-19) was > 100 µM (inactive), the GI50 (HL-60) was > 100 µM (inactive) and the GI50 (HOP-62) was > 100 µM (inactive). The GI50 (CCRF-CEM) was > 100 µM (inactive), the GI50 (786-0) was > 100 µM (inactive) and the GI50 (HOP-92) was > 100 µM (inactive). For the same molecule, the GI50 (DMS-114) was > 100 µM (inactive), the GI50 (COLO 205) was > 100 µM (inactive) and the GI50 (M14) was > 100 µM (inactive). The GI50 (A498) was > 100 µM (inactive), the GI50 (NCI-H23) was 71 µM (inactive) and the GI50 (OVCAR-3) was > 100 µM (inactive). The GI50 (SK-MEL-28) was > 100 µM (inactive), the GI50 (UACC-62) was > 100 µM (inactive) and the GI50 (TK-10) was > 100 µM (inactive). The GI50 (RPMI-8226) was > 100 µM (inactive), the GI50 (M19-MEL) was > 100 µM (inactive) and the GI50 (EKVX) was > 100 µM (inactive).
